Structures are written as SMILES.

One data set relates to IL-2-induced pSTAT5. In words: IL-2-induced pSTAT5 in human PBMC. To be noted: 20 ng/ml of IL-2. It counts as cell-based. How it is done: (§1) Similar to the method for INFα induced pSTAT5 in human PBMC described above, these assays were performed to check if test compounds have cross-activity to JAK1. JAK2 and JAK3 pathways in human PBMC. The procedure is as described with change of stimuli to 10 ng/ml of GM-CSF or 20 ng/ml of IL-2.

A further data set has as its system INFα induced pSTAT5. In words: INFα induced pSTAT5 in human PBMC. It counts as cell-based. To be noted: Homo sapiens, PBMC, INFα 5000 units/ml, read-out: p-STAT5 IC50. On the procedure:
(§2) Fresh Human PBMCs were resuspended in RPMI 1640 medium with 10% FBS. Cells were seeded in a round bottom 96-well plate at the concentration of 200,000 cells/well. A 10-point dilution series of test compound (top dose 10 uM, 1:5 dilution) was added to the well using the liquid dispenser (Tecan D300e) and incubated for 1 hour at 37 C. Then human INFα recombinant protein (R&D Systems) was added to the well at the final concentration of 5000 units/ml and incubated for 15 minutes at 37 C. Cell lysates were prepared and analyzed by Phospho STAT3 (Tyr705) cellular kit (Cisbio) or Phospho STAT5 (Tyr693) Kit (Meso Scale Discovery) following manufacturer's protocol.
(§3) For calculation of the inhibition rate, the relative pSTAT signal of each well=pSTAT signal of each well−the average pSTAT signal of baseline.
(§4) The inhibition %=(the average pSTAT signal of INFα treatment wells—the relative of pSTAT signal in each compound containing well)/the average pSTAT signal of INFα treatment wells * 100%
(§5) The curve was plotted as the inhibition % (y-axis) vs. compounds concentration (x-axis) and was fitted with log(inhibitor) vs. normalized response—Variable slope by GraphPad Prism7.0.

The target in data set [1] is T1, human TYK2 (JH2domain-pseudokinase) (Homo sapiens, UniProt P29597).
T1 construct: host or cells: transiently transfected HEK293 cells; unpurified extract
T1 sequence (P29597 556-888): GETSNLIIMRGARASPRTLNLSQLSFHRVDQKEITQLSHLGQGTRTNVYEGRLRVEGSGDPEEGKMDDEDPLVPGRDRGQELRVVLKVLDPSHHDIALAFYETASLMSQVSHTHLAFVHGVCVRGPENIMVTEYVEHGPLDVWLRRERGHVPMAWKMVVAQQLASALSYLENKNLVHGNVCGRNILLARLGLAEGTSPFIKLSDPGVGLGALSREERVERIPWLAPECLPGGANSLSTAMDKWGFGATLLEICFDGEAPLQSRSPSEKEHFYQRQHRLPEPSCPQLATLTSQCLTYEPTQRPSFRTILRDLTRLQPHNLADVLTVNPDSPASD
The data set is described as follows: TYK2 JH2 domain binding assay (KINOMEscan). To be noted: duplicate. How it is done: Binding constants for the compounds described herein against the JH2 domain were determined by the following protocol for a KINOMEscan® assay (DiscoveRx). A fusion protein of a partial length construct of human TYK2 (JH2domain-pseudokinase) (amino acids G556 to D888 based on reference sequence NP_003322.3) and the DNA binding domain of NFkB is expressed in transiently transfected HEK293 cells. From these HEK 293 cells, extracts are prepared in M-PER extraction buffer (Pierce) in the presence of Protease Inhibitor Cocktail Complete (Roche) and Phosphatase Inhibitor Cocktail Set II (Merck) per manufacturers' instructions. The TYK2 (JH2domain-pseudokinase) fusion protein is labeled with a chimeric double-stranded DNA tag containing the NFkB binding site fused to an amplicon for qPCR readout, which is added directly to the expression extract (the final concentration of DNA-tag in the binding reaction is 0.1 nM).
The liganded beads are blocked with excess biotin and washed with blocking buffer (SeaBlock (Pierce), 1% BSA, 0.05% Tween 20, 1 mM DTT) to remove unbound ligand and to reduce nonspecific binding.
Extracts are used directly in binding assays without any enzyme purification steps at a ≥10,000-fold overall stock dilution (final DNA-tagged enzyme concentration <0.1 nM). Extracts are loaded with DNA-tag and diluted into the binding reaction in a two-step process. First extracts are diluted 1:100 in 1× binding buffer (PBS/0.05% Tween 20/10 mM DTT/0.1% BSA/[…] sonicated salmon sperm DNA) containing 10 nM DNA-tag. This dilution is allowed to equilibrate at room temperature for 15 minutes and then subsequently diluted 1:100 in 1× binding buffer. Test compounds were prepared as 111×stocks in 100% DMSO. […] The compounds are then diluted directly into the assays such that the final concentration of DMSO was 0.9%. All reactions are performed in polypropylene 384-well plates. Each was a final volume of 0.02 mL.
Assays are incubated with shaking for 1 hour at room temperature. Then the beads are pelleted and washed with wash buffer (1×PBS, 0.05% Tween 20) to remove displaced kinase and test compound. […] The kinase concentration in the eluates was measured by qPCR. qPCR reactions are assembled by adding […] of kinase eluate to […] of qPCR master mix containing […] amplicon primers and […] amplicon probe. The qPCR protocol consisted of a 10 minute hot start at 95° C., followed by 35 cycles of 95° C. for 15 seconds, 60° C. for 1 minute.
Test compounds are prepared as 111×stocks in 100% DMSO. […] The compounds are then diluted directly into the assays such that the final concentration of DMSO was 0.9%. The Kds are determined using a compound top concentration of 30,000 nM. Kd measurements are performed in duplicate.
Binding constants (Kds) were calculated with a standard dose-response curve using the Hill equation: […]
The Hill Slope was set to −1. Curves were fitted using a non-linear least square fit with the Levenberg-Marquardt algorithm (Levenberg, K., A method for the solution of certain non-linear problems in least squares, Q. Appl. Math. 2, 164-168 (1944)).

The subject of data set [2] is JAK2/TYK2 (IL-12 induced pSTAT4). In words: IL-12 induced pSTAT4 in human PBMC. It counts as cell-based. To be noted: IL-12 10 ng/ml. How it is done:
as §2, with “IL-12” for “INFα”, “10 ng/ml” for “5000 units/ml”, “STAT4” for “STAT3 (Tyr705) cellular kit (Cisbio) or Phospho STAT5”
For calculation of the inhibition rate, the relative pSTAT4 signal of each well=pSTAT4 signal of each well−the average pSTAT4 signal of baseline.
The inhibition %=(the average pSTAT4 signal of IL-12 treatment wells—the relative of pSTAT4 signal in each compound containing well)/the average pSTAT4 signal of IL-12 treatment wells*100%
as §5

The next data set has as its system INFα induced pSTAT3. In words: INFα induced pSTAT3 in human PBMC. It counts as cell-based. Conditions: INFα 5000 units/ml, read-out: p-STAT3 IC50. On the procedure:
as §2, §3, §4, §5

Another data set deals with T2, JAK2 (JH1 domain) (Homo sapiens, UniProt O60674).
T2 construct: inferred from 'similar to the method' for TYK2 JH2; DiscoverX (KINOMEscan)
T2 sequence (O60674 849-1124 limits assumed): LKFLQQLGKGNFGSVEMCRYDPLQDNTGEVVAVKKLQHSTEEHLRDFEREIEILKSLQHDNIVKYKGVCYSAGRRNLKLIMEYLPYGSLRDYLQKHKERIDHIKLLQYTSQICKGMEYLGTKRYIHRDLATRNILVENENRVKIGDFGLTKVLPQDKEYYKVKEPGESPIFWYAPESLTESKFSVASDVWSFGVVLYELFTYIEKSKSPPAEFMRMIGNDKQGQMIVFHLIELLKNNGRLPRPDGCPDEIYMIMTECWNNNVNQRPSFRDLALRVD
The data set is described as follows: JAK2 JH1 domain binding assay (KINOMEscan).

Another data set has as its target T3, JAK1 (JH2 domain) (Homo sapiens, UniProt P23458).
T3 construct: inferred from 'similar to the method' for TYK2 JH2; DiscoverX (KINOMEscan)
The data set is described as follows: JAK1 JH2 domain binding assay (KINOMEscan).

The next data set deals with GM-CSF-induced pSTAT5. In words: GM-CSF-induced pSTAT5 in human PBMC. It counts as cell-based. To be noted: 10 ng/ml of GM-CSF. On the procedure: as §1
Data set [3] in a line: Pharmacokinetic studies in Sprague Dawley rats. It counts as in vivo. To be noted: rat, plasma, male Sprague Dawley rats. On the procedure: The pharmacokinetics of test compounds were evaluated in male Sprague Dawley rats when administered via oral gavage and IV injection. The test compound was suspended in 0.5% methylcellulose for oral gavage and dissolved in 5% DMSO/5% Solutol/90% saline for IV injection. The animals were fasted overnight before administration. Plasma samples were collected predose and at 0.5, 1, 3, 6, 9, 12, and 24 hours postdose. The samples were analyzed by LC/MS/MS and the concentration of test compound at each timepoint was determined by linear regression. Pharmacokinetic parameters were calculated from the plasma concentrations using Pheonix WinNonlin.

T3 sequence (P23458 583-855 limits assumed): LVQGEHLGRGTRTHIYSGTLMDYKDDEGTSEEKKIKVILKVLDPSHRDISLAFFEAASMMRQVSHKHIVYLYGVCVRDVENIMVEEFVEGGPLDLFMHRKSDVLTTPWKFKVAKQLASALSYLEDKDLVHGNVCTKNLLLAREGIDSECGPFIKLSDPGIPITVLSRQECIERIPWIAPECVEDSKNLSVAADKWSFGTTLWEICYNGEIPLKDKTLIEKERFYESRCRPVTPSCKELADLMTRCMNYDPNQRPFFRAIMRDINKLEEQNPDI
Description for JAK1 (JH2 domain): (§6) Similar to the method for TYK2 JH2 binding described above, JAK1 JH2 and JAK2 JH1 domain binding assay was performed using DiscoverX's KINOMEscan™, but with change of kinase domain. These assays were performed to compare the binding selectivity of test compounds to JAK1 JH2 and JAK2 JH1 domain.
Description for JAK2 (JH1 domain): as §6

For `CNc1cc2nn3c(cnc13)C(=O)N[C@H](C)COCc1cc(c3nn(C)cc3c1)N2` [Example 24], the 50% inhibitory concentration (IC50) with IL-2-induced pSTAT5 is 9390 nM; with INFα induced pSTAT5 it was 0.5 nM.

`CNc1cc2nn3c(cnc13)C(=O)NCCCOc1ccc(OC)c(c1)N2` [Example 4] gave a Kd in data set [1] of 0.38 nM. The molecule also displayed an IC50 in data set [2] of 16.1 nM.

In the case of `CNc1cc2nn3c(cnc13)C(=O)NCCOCc1ccc(OC)c(c1)N2` [Example 6], binding in [1] was put at a Kd of 0.071 nM. Also, the half-maximal inhibitory concentration (IC50) in the data set on INFα induced pSTAT5 was 26.2 nM.

`CNc1cc2nc3c(cnn13)C(=O)NCCOCc1cnc(OC)c(c1)N2` [Example 1]: binding in data set [1] was characterised by a dissociation constant (Kd) of 0.24 nM. The results for the IC50 (in data set [2]; with INFα induced pSTAT3) were 281 nM and 87.5 nM, respectively.

On to `CNc1cc2nc3c(cnn13)C(=O)N[C@H](C)COCc1ccc(C(F)(F)F)c(c1)N2` [Example 10], for which the Kd at JAK2 (JH1 domain) is 7300 nM; in [1] it was 0.0023 nM; on JAK1 (JH2 domain), 430 nM. The IC50 in the data set on IL-2-induced pSTAT5 was greater than 10000 nM; in the data set with INFα induced pSTAT5 it was 1.2 nM.

Consider `[2H]C([2H])([2H])NC(=O)c1nnc(NC(=O)C2CC2)cc1Nc1cccc(-c2ncn(C)n2)c1OC` [control, BMS-986165, reference compound], for which the IC50 turned out to be 442 nM in the data set with IL-2-induced pSTAT5 and 1310 nM in the data set with GM-CSF-induced pSTAT5.

`CNc1cc2nc3c(cnn13)C(=O)NCCCOc1ccc(OC)c(c1)N2` [Example 3]: in [1], the Kd came out at 0.96 nM. The results for the IC50 (in data set [2]; in the data set on INFα induced pSTAT3) were 1150 nM and 1460 nM, respectively.

As for `CNc1cc2nn3c(cnc13)C(=O)N[C@H](C)COCc1cc(c(OC)c(F)c1F)N2` [Example 19, (7R,E)-3^4,3^5-difluoro-3^6-methoxy-7-methyl-1^8-(methylamino)-5-oxa-2,8-diaza-1(6,3)-imidazo[1,2-b]pyridazina-3(1,3)-benzenacyclononaphan-9-one], the results for the IC50 with IL-2-induced pSTAT5 and in the data set with INFα induced pSTAT5 were 38500 nM and 8.7 nM, respectively.

In data set [1], `CNc1cc2nc3c(cnn13)C(=O)NCCOCc1ccc(OC)c(c1)N2` [Example 2] registered a Kd of 0.14 nM. Further, the concentration for half-maximal inhibition (IC50) in [2] amounted to 12.2 nM.

Regarding `CNc1cc2nn3c(cnc13)C(=O)NC(C)COCc1ccc(OC)c(c1)N2` (centres unmarked) [Example 7], binding in data set [1] was put at a Kd of 0.0071 nM. Further, in [3] (iv, I.V. (1 mg/kg)), the exposure (AUC) came to 318 ± 30 ng·h/mL, the C0 was 1230 ± 153 ng/mL, the clearance came to 52.4 ± 5.3 mL/min/kg and the half-life is 18 ± 0.96 min. The Vd in data set [3] (iv, I.V. (1 mg/kg), read-out: Vdss) was 0.956 ± 0.1 L/kg. Besides, in [3] (Oral (5 mg/kg)), the exposure (AUC) is 84.9 ± 36 ng·h/mL, the maximum concentration (Cmax) was found to be 18.2 ± 3.1 ng/mL, the Tmax is 40 ± 17.4 min and the bioavailability was 5.34 ± 2.3%. In data set [3] (Oral (5 mg/kg)), this molecule showed a half-life of 238 ± 66 min. Further, the concentration for half-maximal inhibition (IC50) with INFα induced pSTAT5 is 2.3 nM.
